Measurements published in patent US12077503B2, “Substituted cyclic amides and their use as herbicides” (FMC CORPORATION, priority 2015, dated 2024).

Key:
Type in all cases: in vivo
Kochia (Kochia scoparia) [1] = test: Test A preemergence; conditions: Bassia scoparia, pre-emergence, 240 h, Preemergence
Procedure, shortened: (§1)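 Compounds were formulated in a non-phytotoxic solvent mixture with surfactant and applied as a preemergence directed soil spray after seeding, or sprayed postemergence over plants 2 to 10 cm tall at the one- to two-leaf stage. Evaluation after about 10 d compared treated with untreated controls, using a scale from 0 (no effect) to 100 (complete control).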

[2] = test system: barnyardgrass (Echinochloa crus-galli); test: Test A preemergence; conditions: Echinochloa crus-galli, pre-emergence, 240 h, Preemergence
Procedure, shortened: as §1

[3] = test system: giant foxtail (Setaria faberii); test: Test A preemergence; conditions: Setaria faberi, pre-emergence, 240 h, Preemergence
Procedure, shortened: as §1

[4] = test system: pigweed (Amaranthus retroflexus); test: Test A preemergence; conditions: Amaranthus retroflexus, pre-emergence, 240 h, Preemergence
[5] = test system: ragweed (common ragweed, Ambrosia elatior); test: Test A preemergence; conditions: Ambrosia artemisiifolia, pre-emergence, 240 h, Preemergence
Procedure, shortened: as §1

[6] = test system: ryegrass, Italian (Italian ryegrass, Lolium multiflorum); test: Test A preemergence; conditions: Lolium multiflorum, pre-emergence, 240 h, Preemergence
Procedure, shortened: as §1

[7] = test system: Galium (catchweed bedstraw, Galium aparine); test: Test A postemergence; conditions: Galium, post-emergence, 240 h, Postemergence, read-out: Galium plant response rating (0 to 100 scale)
Procedure, shortened: as §1

Kochia (Kochia scoparia) [8] = test: Test A postemergence; conditions: Bassia scoparia, post-emergence, 240 h, Postemergence, read-out: Kochia plant response rating (0 to 100 scale)
Procedure, shortened: as §1

[9] = test system: barnyardgrass (Echinochloa crus-galli); test: Test A postemergence; conditions: Echinochloa crus-galli, post-emergence, 240 h, Postemergence
Procedure, shortened: as §1

[10] = test system: blackgrass (Alopecurus myosuroides); test: Test A postemergence; conditions: Alopecurus myosuroides, post-emergence, 240 h, Postemergence, read-out: Blackgrass plant response rating (0 to 100 scale)
Procedure, shortened: as §1

corn (Zea mays) = test: Test A postemergence; conditions: Zea mays, post-emergence, 240 h, Postemergence, read-out: Corn plant response rating (0 to 100 scale)
Procedure, shortened: as §1

[11] = test system: giant foxtail (Setaria faberii); test: Test A postemergence; conditions: Setaria faberi, post-emergence, 240 h, Postemergence, read-out: Foxtail, Giant plant response rating (0 to 100 scale)
Procedure, shortened: as §1

[12] = test system: pigweed (Amaranthus retroflexus); test: Test A postemergence; conditions: Amaranthus retroflexus, post-emergence, 240 h, Postemergence, read-out: Pigweed plant response rating (0 to 100 scale)
Procedure, shortened: as §1

[13] = test system: ragweed (common ragweed, Ambrosia elatior); test: Test A postemergence; conditions: Ambrosia artemisiifolia, post-emergence, 240 h, Postemergence, read-out: Ragweed plant response rating (0 to 100 scale)
Procedure, shortened: as §1

[14] = test system: ryegrass, Italian (Italian ryegrass, Lolium multiflorum); test: Test A postemergence; conditions: Lolium multiflorum, post-emergence, 240 h, Postemergence, read-out: Ryegrass, Italian plant response rating (0 to 100 scale)
Procedure, shortened: as §1

[15] = test system: wheat (Triticum aestivum); test: Test A postemergence; conditions: Triticum aestivum, post-emergence, 240 h, Postemergence, read-out: Wheat plant response rating (0 to 100 scale)
Procedure, shortened: as §1

[16] = test system: barnyardgrass (Echinochloa crus-galli); test: Test B flooded paddy test; conditions: Echinochloa crus-galli, 360 h, Flood, 250 g ai/ha; visually evaluated after 13 to 15 d; read-out: Plant response rating, Barnyardgrass (0 to 100 scale where 0 is no effect and 100 is complete control)
Procedure, shortened: (§2)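 2-leaf plants; pots flooded 3 cm over soil; cpd added to paddy water; depth held; greenhouse 13–15 d; visual rating vs controls, 0 = no effect, 100 = complete control.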

[17] = test system: ducksalad (Heteranthera limosa); test: Test B flooded paddy test; conditions: Heteranthera limosa, 360 h, Flood, 250 g ai/ha; visually evaluated after 13 to 15 d; read-out: Plant response rating, Ducksalad (0 to 100 scale where 0 is no effect and 100 is complete control)
Procedure, shortened: as §2

rice (Oryra sativa) = test: Test B flooded paddy test; conditions: Oryza sativa, 360 h, Flood, 250 g ai/ha; visually evaluated after 13 to 15 d; read-out: Plant response rating, Rice (0 to 100 scale where 0 is no effect and 100 is complete control)
Procedure, shortened: as §2

[18] = test system: sedge, umbrella (small-flower umbrella sedge, Cyperus difformis); test: Test B flooded paddy test; conditions: Cyperus difformis, 360 h, Flood, 250 g ai/ha; visually evaluated after 13 to 15 d; read-out: Plant response rating, Sedge, Umbrella (0 to 100 scale where 0 is no effect and 100 is complete control)
Procedure, shortened: as §2

[19] = 125 g ai/ha, visual rating about 10 d after treatment
[20] = 31 g ai/ha, 0 is no effect, 100 is complete control

## CC(C)=Cc1cc([C@H]2CN(C)C(=O)[C@@H]2C(=O)Nc2cccc(F)c2F)ccc1C(F)(F)F [Compound 1337]
Kochia (Kochia scoparia) [1]; 31 g ai/ha, 0 to 100 scale where 0 is no effect and 100 is complete control, read-out: Kochia plant response rating
  pest or weed control at 31 g/ha: 0%
Kochia (Kochia scoparia) [1]; 125 g ai/ha, 0 to 100 scale (0 no effect, 100 complete control), read-out: Plant response rating, Kochia
  pest or weed control at 125 g/ha: 0%
[2]; 31 g ai/ha, 0 to 100 scale where 0 is no effect and 100 is complete control, read-out: Barnyardgrass plant response rating
  pest or weed control at 31 g/ha: 50%
[2]; 125 g ai/ha, 0 to 100 scale (0 no effect, 100 complete control), read-out: Plant response rating, Barnyardgrass
  pest or weed control at 125 g/ha: 80%
[3]; 31 g ai/ha, 0 to 100 scale where 0 is no effect and 100 is complete control, read-out: Foxtail, Giant plant response rating
  pest or weed control at 31 g/ha: 40%
[3]; 125 g ai/ha, 0 to 100 scale (0 no effect, 100 complete control), read-out: Plant response rating, Foxtail, Giant
  pest or weed control at 125 g/ha: 80%
[4]; 31 g ai/ha, 0 to 100 scale where 0 is no effect and 100 is complete control, read-out: Pigweed plant response rating
  pest or weed control at 31 g/ha: 0%
[4]; 125 g ai/ha, 0 to 100 scale (0 no effect, 100 complete control), read-out: Plant response rating, Pigweed
  pest or weed control at 125 g/ha: 0%
[5]; 31 g ai/ha, 0 to 100 scale where 0 is no effect and 100 is complete control, read-out: Ragweed plant response rating
  pest or weed control at 31 g/ha: 0%
[5]; 125 g ai/ha, 0 to 100 scale (0 no effect, 100 complete control), read-out: Plant response rating, Ragweed
  pest or weed control at 125 g/ha: 0%
[6]; 31 g ai/ha, 0 to 100 scale where 0 is no effect and 100 is complete control, read-out: Ryegrass, Italian plant response rating
  pest or weed control at 31 g/ha: 20%
[6]; 125 g ai/ha, 0 to 100 scale (0 no effect, 100 complete control), read-out: Plant response rating, Ryegrass, Italian
  pest or weed control at 125 g/ha: 70%
[7]; [19]
  pest or weed control at 125 g/ha: 0%
[7]; [20]
  pest or weed control at 31 g/ha: 0%
Kochia (Kochia scoparia) [8]; [19]
  pest or weed control at 125 g/ha: 20%
Kochia (Kochia scoparia) [8]; [20]
  pest or weed control at 31 g/ha: 20%
[9]; 125 g ai/ha, visual rating about 10 d after treatment, read-out: Barnyardgrass plant response rating (0 to 100 scale, 0 no effect, 100 complete control)
  pest or weed control at 125 g/ha: 30%
[9]; 31 g ai/ha, 0 is no effect, 100 is complete control, read-out: Barnyardgrass plant response rating (0 to 100 scale)
  pest or weed control at 31 g/ha: 20%
[10]; [19]
  pest or weed control at 125 g/ha: 0%
[10]; [20]
  pest or weed control at 31 g/ha: 0%
Corn (Zea mays); [19]
  plant injury at 125 g/ha: 0%
Corn (Zea mays); [20]
  plant injury at 31 g/ha: 0%
[11]; [19]
  pest or weed control at 125 g/ha: 40%
[11]; [20]
  pest or weed control at 31 g/ha: 20%
[12]; [19]
  pest or weed control at 125 g/ha: 20%
[12]; [20]
  pest or weed control at 31 g/ha: 0%
[13]; [19]
  pest or weed control at 125 g/ha: 0%
[13]; [20]
  pest or weed control at 31 g/ha: 0%
[14]; [19]
  pest or weed control at 125 g/ha: 20%
[14]; [20]
  pest or weed control at 31 g/ha: 0%
[15]; [19]
  plant injury at 125 g/ha: 20%
[15]; [20]
  plant injury at 31 g/ha: 0%
[16]
  pest or weed control at 250 g/ha: 20%
[17]
  pest or weed control at 250 g/ha: 20%
Rice (Oryra sativa)
  pest or weed control at 250 g/ha: 20%
[18]
  pest or weed control at 250 g/ha: 0%
